Laboratory results published in patent publication US20090081189A1, “Process for in vitro differentiation of neuronal stem cells or of cells derived from neuronal stem cells” (Axaron Bioscfience Ag, priority 2003, published 2009).

Test system: beta-catenin
Experiment: Western blot of beta-catenin in adult neuronal stem and progenitor cells after inhibition of the Wnt signal pathway
Assay type: cell-based, rat
Conditions: genistein 50 μM, undifferentiated and differentiated, densitometry of Western blot, versus cells without inhibition
Description: To inhibit the Wnt signal pathway, the unspecific kinase inhibitor genistein is added at a concentration of 50 μM in order to inhibit the action of glycogen synthase kinase 3 (GSK 3) (Murase S et al., 2002, Neuron, 35, 91-105).
Subsequently, a protein extract (see above, example 1) is prepared and the beta-catenin protein is identified by one dimensional gel electrophoresis and Western blotting (FIG. 3, FIG. 4).
The protein extracts of the adult neuronal stem cells are first fractionated in a 12% polyacrylamide gel in Lammli buffer consisting of 2% (w/v) sodium dodecylsulfate, 10% (v/v) glycerol, 100 mM dithiothreitol, 60 mM Tris-HCl, pH 6.8, 0.001% bromophenol blue and 5% 2-mercaptoethanol and applied to a nitrocellulose membrane (Optitran BA-S83, 0.2 μm, Schleicher & Schnell, Dassel, Germany) by the semi-dry blotting method (Kyhse-Andersen J, 1984, J Biochem Biophys Methods, 10, 203-209). […] Antibody binding is detected by way of chemiluminescent signals. […] The X-ray films are developed and measured densitometrically. […]

O=c1c(-c2ccc(O)cc2)coc2cc(O)cc(O)c12 [genistein, 4′,5,7-trihydroxyisoflavone]
reduction of β-catenin expression (factor): ~2
